Measurements reported in publication PMC9929129, “Towards Translation of PqsR Inverse Agonists: From In Vitro Efficacy Optimization to In Vivo Proof‐of‐Principle” (Advanced Science, 2023).
Values joined by “and” are separate entries in the source; they are usually repeats but may differ in a detail not shown here. Equal values may be shown once.

How the values were obtained:
[1] = Metabolic stability in mouse hepatocytes; type: in vitro ADME; settings: read-out: Mouse hepatocytes t½
CYP1A = CYP1A (Homo sapiens, UniProt P05177); test: Cytochrome P450 inhibition assay, CYP1A; type: in vitro ADME
Procedure: 1.4.4 Pharmacokinetic and off-target functional assays (Cyprotex)
Compound 24 was assayed at Cyprotex in functional assays for interference with important off-targets as well as important pharmacokinetic parameters. With the exception of plasma protein binding, a dose-response relationship was studied in order to calculate IC50 values.
Table S10. Information on in vitro ADMET assays performed at Cyprotex. […]
(§1) An increase in the number of colonies of at least two-fold over baseline (mean + SD of the vehicle control) and a dose response indicate a positive response. An […]
(§2) different from the vehicle control.
(§3) Where indicated, S9 fraction from the livers of Aroclor 1254-treated rats were included in the incubation at a final concentration of 4.5%. A NADPH-regenerating system was also included to ensure a steady supply of reducing equivalents.

P2X4 receptor = target: T1, P2X4 receptor (Homo sapiens, UniProt Q99571); test: Ion channel profiling at Charles River: P2X4; type: cell-based; settings: expressed in HEK293 cells; read-out: ESTIMATED IC50
T1 construct: host or cells: HEK293 cells
Procedure: 1.4.3 Ion Channel Profiling at Charles River
Table S9. Compound 24 was tested against the following ion channels at Charles River Laboratories. […]
FLIPR Assay expressed in HEK293 cells
GABAA α5/β3/γ2 ionotropic receptor (human GABRA5, GABRB3, >30 and GABRG2 genes, expressed in HEK293 cells
P2X4 receptor (human P2RX4 gene) expressed in HEK293 cells >30 […]
as §1, §2, §3

[2] = target: T2, Potassium Channel hERG (human) (Homo sapiens, UniProt Q12809); test: Cerep panel binding assay; settings: 10 µM, [3H] Dofetilide
T2 construct: purchased Eurofins Pharma Discovery (Cerep) SafetyScreen44 Panel, ITEM P270
T2 sequence (Q12809 whole entry): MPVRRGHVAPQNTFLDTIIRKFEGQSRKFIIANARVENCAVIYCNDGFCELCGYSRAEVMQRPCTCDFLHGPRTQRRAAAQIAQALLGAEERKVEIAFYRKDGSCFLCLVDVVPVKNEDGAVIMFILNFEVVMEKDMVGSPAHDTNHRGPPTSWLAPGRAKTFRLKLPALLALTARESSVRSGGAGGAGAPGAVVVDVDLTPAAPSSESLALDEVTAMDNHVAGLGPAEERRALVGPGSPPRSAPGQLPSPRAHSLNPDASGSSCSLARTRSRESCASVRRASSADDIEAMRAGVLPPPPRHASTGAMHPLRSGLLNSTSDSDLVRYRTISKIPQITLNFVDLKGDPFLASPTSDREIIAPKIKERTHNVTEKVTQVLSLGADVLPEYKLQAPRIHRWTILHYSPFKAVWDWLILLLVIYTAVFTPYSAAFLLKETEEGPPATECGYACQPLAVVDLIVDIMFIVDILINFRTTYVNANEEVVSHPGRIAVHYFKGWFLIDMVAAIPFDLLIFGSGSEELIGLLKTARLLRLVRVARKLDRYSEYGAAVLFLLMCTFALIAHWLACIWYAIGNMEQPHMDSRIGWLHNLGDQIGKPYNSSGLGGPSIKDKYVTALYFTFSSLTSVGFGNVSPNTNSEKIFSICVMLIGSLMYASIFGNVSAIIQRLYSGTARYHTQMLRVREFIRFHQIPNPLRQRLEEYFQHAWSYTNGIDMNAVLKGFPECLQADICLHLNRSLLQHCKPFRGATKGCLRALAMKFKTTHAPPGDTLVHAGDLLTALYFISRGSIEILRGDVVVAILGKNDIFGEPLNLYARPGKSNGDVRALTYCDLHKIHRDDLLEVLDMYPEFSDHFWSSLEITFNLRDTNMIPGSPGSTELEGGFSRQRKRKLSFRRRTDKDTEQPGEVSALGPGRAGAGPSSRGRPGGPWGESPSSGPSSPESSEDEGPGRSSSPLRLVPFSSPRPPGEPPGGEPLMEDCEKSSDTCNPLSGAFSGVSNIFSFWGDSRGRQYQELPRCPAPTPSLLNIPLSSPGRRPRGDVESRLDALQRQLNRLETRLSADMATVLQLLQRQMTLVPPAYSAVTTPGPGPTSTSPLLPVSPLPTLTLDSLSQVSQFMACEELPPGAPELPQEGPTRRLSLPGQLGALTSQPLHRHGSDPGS
Procedure: (§4) 1.4 Safety Pharmacology of Compound 24
(§5) 1.4.1 Cerep panel (Eurofins)
(§6) Compound 24 was further profiled for its off-target interactions against a panel of 44 targets. The
(§7) screening was done by Eurofins Pharma Discovery within the SafetyScreen44 Panel (Cerep, ITEM
(§8) P270). In all assays binding/functional inhibition was determined at 10 µM.
(§9) Table S6. […]
Potassium Channel hERG (human) [3H] […]

5-HT1A (h) = target: T3, 5-HT1A (h) (Homo sapiens, UniProt P08908); test: Cerep panel binding assay; settings: agonist radioligand
T3 construct: purchased Eurofins Pharma Discovery (Cerep) SafetyScreen44 Panel, ITEM P270
Procedure: as §4, §5, §6, §7, §8, §9

[3] = target: T4, N neuronal alpha4beta2 (h) (Homo sapiens, UniProt P17787+P43681); test: Cerep panel binding assay; settings: agonist radioligand
T4 construct: Eurofins Pharma Discovery (CRO that ran the assay) SafetyScreen44 Panel (Cerep, ITEM P270)
Procedure: as §4, §5, §6, §7, §8, §9

MAO-A = target: T5, MAO-A (Rattus norvegicus, UniProt P21396); test: Cerep panel binding assay; settings: antagonist radioligand
T5 construct: purchased Eurofins Pharma Discovery (Cerep) SafetyScreen44 Panel, ITEM P270
Procedure: as §4, §5, §6, §7, §8, §9

H2 (h) = target: T6, H2 (h) (Homo sapiens, UniProt P25021); test: Cerep panel binding assay; settings: antagonist radioligand
T6 construct: Eurofins Pharma Discovery (CRO that ran the assay) SafetyScreen44 Panel (Cerep, ITEM P270)
Procedure: as §4, §5, §6, §7, §8, §9

5-HT transporter (h) = target: T7, 5-HT transporter (h) (Homo sapiens, UniProt P31645); test: Cerep panel binding assay; settings: antagonist radioligand
T7 construct: purchased Eurofins Pharma Discovery (Cerep) SafetyScreen44 Panel, ITEM P270
Procedure: as §4, §5, §6, §7, §8, §9

M2 (h) = target: T8, M2 (h) (Homo sapiens, UniProt P08172); test: Cerep panel binding assay; settings: antagonist radioligand
T8 construct: Eurofins Pharma Discovery (CRO that ran the assay) SafetyScreen44 Panel (Cerep, ITEM P270)
Procedure: as §4, §5, §6, §7, §8, §9

H1 (h) = target: T9, H1 (h) (Homo sapiens, UniProt P35367); test: Cerep panel binding assay; settings: antagonist radioligand
T9 construct: purchased Eurofins Pharma Discovery (Cerep) SafetyScreen44 Panel, ITEM P270
Procedure: as §4, §5, §6, §7, §8, §9

CB2 (h) = target: T10, CB2 (h) (Homo sapiens, UniProt P34972); test: Cerep panel binding assay; settings: agonist radioligand
T10 construct: purchased Eurofins Pharma Discovery (Cerep) SafetyScreen44 Panel, ITEM P270
T10 sequence (P34972 whole entry): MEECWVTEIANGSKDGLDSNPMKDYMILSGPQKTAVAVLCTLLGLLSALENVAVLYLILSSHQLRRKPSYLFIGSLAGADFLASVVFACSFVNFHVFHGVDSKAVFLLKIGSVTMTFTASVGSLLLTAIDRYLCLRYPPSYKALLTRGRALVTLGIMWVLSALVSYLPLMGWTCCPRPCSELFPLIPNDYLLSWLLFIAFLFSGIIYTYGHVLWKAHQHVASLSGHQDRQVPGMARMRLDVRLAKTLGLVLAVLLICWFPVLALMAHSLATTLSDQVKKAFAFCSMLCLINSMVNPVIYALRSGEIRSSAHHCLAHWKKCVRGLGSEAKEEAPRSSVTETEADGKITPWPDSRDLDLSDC
Procedure: as §4, §5, §6, §7, §8, §9

NMDA = test: Cerep panel binding assay; settings: 10 µM, antagonist radioligand
Procedure: as §4, §5, §6, §7, §8, §9

beta2 (h) = target: T11, beta2 (h) (Homo sapiens, UniProt P07550); test: Cerep panel binding assay; settings: antagonist radioligand
T11 construct: purchased Eurofins Pharma Discovery (Cerep) SafetyScreen44 Panel, ITEM P270
Procedure: as §4, §5, §6, §7, §8, §9

M3 (h) = target: T12, M3 (h) (Homo sapiens, UniProt P20309); test: Cerep panel binding assay; settings: antagonist radioligand
T12 construct: Eurofins Pharma Discovery (CRO that ran the assay) SafetyScreen44 Panel (Cerep, ITEM P270)
T12 sequence (P20309 whole entry): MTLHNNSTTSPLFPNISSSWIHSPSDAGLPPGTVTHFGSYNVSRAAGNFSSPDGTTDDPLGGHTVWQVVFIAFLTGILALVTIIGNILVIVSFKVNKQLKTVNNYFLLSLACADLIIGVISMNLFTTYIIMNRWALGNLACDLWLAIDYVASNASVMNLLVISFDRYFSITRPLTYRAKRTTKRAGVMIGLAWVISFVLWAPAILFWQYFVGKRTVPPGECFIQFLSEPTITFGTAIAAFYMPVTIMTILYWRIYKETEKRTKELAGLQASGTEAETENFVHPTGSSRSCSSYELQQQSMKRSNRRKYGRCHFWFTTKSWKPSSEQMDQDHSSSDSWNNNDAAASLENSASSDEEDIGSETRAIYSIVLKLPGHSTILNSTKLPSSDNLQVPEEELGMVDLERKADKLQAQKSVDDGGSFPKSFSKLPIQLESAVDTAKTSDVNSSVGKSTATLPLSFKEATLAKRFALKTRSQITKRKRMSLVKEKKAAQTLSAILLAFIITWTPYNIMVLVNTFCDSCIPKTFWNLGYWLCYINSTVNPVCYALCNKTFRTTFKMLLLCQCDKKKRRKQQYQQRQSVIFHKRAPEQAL
Procedure: as §4, §5, §6, §7, §8, §9

5-HT2A (h) = target: T13, 5-HT2A (h) (Homo sapiens, UniProt P28223); test: Cerep panel binding assay; settings: agonist radioligand
T13 construct: Eurofins Pharma Discovery (CRO that ran the assay) SafetyScreen44 Panel (Cerep, ITEM P270)
T13 sequence (P28223 whole entry): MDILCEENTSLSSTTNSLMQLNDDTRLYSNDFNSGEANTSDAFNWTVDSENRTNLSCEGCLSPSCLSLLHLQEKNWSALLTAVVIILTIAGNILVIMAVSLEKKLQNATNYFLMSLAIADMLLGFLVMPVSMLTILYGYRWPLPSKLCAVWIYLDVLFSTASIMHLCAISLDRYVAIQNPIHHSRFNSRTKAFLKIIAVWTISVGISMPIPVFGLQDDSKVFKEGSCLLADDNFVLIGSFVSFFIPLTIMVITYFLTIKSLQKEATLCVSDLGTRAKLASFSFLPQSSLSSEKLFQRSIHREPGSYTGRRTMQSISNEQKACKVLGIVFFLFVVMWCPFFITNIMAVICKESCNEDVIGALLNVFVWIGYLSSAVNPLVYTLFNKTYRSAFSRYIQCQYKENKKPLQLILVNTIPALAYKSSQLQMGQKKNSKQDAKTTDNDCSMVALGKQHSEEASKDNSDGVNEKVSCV
Procedure: as §4, §5, §6, §7, §8, §9

5-HT3 (h) = target: T14, 5-HT3 (h) (Homo sapiens, UniProt P46098); test: Cerep panel binding assay; settings: antagonist radioligand
T14 construct: purchased Eurofins Pharma Discovery (Cerep) SafetyScreen44 Panel, ITEM P270
T14 sequence (P46098 24-478): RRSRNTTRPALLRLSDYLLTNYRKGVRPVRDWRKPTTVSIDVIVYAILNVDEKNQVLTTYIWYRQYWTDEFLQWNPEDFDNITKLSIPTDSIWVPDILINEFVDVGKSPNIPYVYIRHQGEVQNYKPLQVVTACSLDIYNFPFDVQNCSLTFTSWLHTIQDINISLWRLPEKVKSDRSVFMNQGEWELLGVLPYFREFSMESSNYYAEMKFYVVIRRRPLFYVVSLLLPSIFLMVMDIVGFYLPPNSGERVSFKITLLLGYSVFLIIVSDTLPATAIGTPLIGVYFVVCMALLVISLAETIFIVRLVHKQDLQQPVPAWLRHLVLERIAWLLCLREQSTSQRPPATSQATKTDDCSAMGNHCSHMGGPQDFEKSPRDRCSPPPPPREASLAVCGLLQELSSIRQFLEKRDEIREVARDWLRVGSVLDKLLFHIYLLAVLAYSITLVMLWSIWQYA
Procedure: as §4, §5, §6, §7, §8, §9

beta1 (h) = target: T15, beta1 (h) (Homo sapiens, UniProt P08588); test: Cerep panel binding assay; settings: agonist radioligand
T15 construct: purchased Eurofins Pharma Discovery (Cerep) SafetyScreen44 Panel, ITEM P270
T15 sequence (P08588 whole entry): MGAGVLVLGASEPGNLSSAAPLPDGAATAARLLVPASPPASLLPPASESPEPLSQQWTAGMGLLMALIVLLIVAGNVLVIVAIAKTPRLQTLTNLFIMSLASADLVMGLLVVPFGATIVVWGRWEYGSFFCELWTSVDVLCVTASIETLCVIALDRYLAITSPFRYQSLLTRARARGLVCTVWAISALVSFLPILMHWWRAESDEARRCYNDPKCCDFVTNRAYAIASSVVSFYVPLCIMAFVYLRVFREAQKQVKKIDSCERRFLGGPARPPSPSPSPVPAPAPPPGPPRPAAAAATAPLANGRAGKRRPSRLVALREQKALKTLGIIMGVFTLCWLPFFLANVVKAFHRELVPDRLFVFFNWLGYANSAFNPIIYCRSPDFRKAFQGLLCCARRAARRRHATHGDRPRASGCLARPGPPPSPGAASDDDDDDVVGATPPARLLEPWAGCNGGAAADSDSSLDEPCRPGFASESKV
Procedure: as §4, §5, §6, §7, §8, §9

GR (h) = target: T16, GR (h) (Homo sapiens, UniProt P04150); test: Cerep panel binding assay; settings: agonist radioligand
T16 construct: purchased Eurofins Pharma Discovery (Cerep) SafetyScreen44 Panel, ITEM P270
Procedure: as §4, §5, §6, §7, §8, §9

M1 (h) = target: T17, M1 (h) (Homo sapiens, UniProt P11229); test: Cerep panel binding assay; settings: antagonist radioligand
T17 construct: Eurofins Pharma Discovery (CRO that ran the assay) SafetyScreen44 Panel (Cerep, ITEM P270)
T17 sequence (P11229 whole entry): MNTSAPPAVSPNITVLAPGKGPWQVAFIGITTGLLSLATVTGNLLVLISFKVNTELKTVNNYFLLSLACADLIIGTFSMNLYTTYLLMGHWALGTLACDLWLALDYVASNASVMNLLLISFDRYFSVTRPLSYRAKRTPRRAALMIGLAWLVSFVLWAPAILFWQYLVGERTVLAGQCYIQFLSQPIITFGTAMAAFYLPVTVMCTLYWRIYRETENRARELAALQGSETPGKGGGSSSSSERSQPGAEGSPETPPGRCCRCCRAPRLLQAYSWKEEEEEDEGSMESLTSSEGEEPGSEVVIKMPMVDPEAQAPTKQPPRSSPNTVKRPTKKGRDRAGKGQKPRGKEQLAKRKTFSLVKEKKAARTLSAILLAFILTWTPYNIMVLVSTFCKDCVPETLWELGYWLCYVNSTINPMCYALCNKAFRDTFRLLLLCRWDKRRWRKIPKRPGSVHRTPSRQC
Procedure: as §4, §5, §6, §7, §8, §9

D2S (h) = target: T18, D2S (h) (Homo sapiens, UniProt P14416); test: Cerep panel binding assay; settings: agonist radioligand
T18 construct: Eurofins Pharma Discovery (CRO that ran the assay) SafetyScreen44 Panel (Cerep, ITEM P270)
Procedure: as §4, §5, §6, §7, §8, §9

ETA (h) = target: T19, ETA (h) (Homo sapiens, UniProt P25101); test: Cerep panel binding assay; settings: agonist radioligand
T19 construct: Eurofins Pharma Discovery (CRO that ran the assay) SafetyScreen44 Panel (Cerep, ITEM P270)
T19 sequence (P25101 21-427): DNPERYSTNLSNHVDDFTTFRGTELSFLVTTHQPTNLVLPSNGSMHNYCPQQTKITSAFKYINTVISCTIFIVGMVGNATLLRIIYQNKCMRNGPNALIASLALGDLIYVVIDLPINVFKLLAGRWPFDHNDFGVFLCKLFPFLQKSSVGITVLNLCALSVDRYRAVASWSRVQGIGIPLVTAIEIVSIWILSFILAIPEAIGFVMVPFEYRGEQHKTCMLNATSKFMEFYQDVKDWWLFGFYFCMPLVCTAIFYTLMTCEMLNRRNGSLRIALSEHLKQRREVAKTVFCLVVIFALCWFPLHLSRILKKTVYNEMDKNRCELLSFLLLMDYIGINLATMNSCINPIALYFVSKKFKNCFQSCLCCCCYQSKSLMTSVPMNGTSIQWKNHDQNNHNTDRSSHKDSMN
Procedure: as §4, §5, §6, §7, §8, §9

dopamine transporter (h) = target: T20, dopamine transporter (h) (Homo sapiens, UniProt Q01959); test: Cerep panel binding assay; settings: antagonist radioligand
T20 construct: purchased Eurofins Pharma Discovery (Cerep) SafetyScreen44 Panel, ITEM P270
Procedure: as §4, §5, §6, §7, §8, §9

5-HT2B (h) = target: T21, 5-HT2B (h) (Homo sapiens, UniProt P41595); test: Cerep panel binding assay; settings: agonist radioligand
T21 construct: purchased Eurofins Pharma Discovery (Cerep) SafetyScreen44 Panel, ITEM P270
Procedure: as §4, §5, §6, §7, §8, §9

alpha1A (h) = target: T22, alpha1A (h) (Homo sapiens, UniProt P35348); test: Cerep panel binding assay; settings: antagonist radioligand
T22 construct: purchased Eurofins Pharma Discovery (Cerep) SafetyScreen44 Panel, ITEM P270
T22 sequence (P35348 whole entry): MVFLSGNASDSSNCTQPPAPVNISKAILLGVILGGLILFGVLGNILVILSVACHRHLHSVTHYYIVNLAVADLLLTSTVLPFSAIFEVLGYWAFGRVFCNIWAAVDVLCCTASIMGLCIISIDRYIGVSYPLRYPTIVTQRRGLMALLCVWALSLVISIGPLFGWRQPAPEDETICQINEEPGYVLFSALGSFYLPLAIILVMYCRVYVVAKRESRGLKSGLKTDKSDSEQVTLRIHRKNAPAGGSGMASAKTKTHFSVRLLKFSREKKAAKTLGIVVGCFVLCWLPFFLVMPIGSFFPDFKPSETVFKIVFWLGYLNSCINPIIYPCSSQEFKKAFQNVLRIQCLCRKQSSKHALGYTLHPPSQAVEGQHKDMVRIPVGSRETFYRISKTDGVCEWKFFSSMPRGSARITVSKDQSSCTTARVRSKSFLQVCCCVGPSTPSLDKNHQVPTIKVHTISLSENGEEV
Procedure: as §4, §5, §6, §7, §8, §9

kappa (h) (KOP) = target: T23, kappa (h) (KOP) (Homo sapiens, UniProt P41145); test: Cerep panel binding assay; settings: agonist radioligand
T23 construct: purchased Eurofins Pharma Discovery (Cerep) SafetyScreen44 Panel, ITEM P270
Procedure: as §4, §5, §6, §7, §8, §9

AR (h) = target: T24, AR (h) (Homo sapiens, UniProt P10275, T878A); test: Cerep panel binding assay; settings: agonist radioligand
T24 construct: purchased Eurofins Pharma Discovery (Cerep) SafetyScreen44 Panel, ITEM P270
Procedure: as §4, §5, §6, §7, §8, §9

CB1 (h) = target: T25, CB1 (h) (Homo sapiens, UniProt P21554); test: Cerep panel binding assay; settings: agonist radioligand
T25 construct: purchased Eurofins Pharma Discovery (Cerep) SafetyScreen44 Panel, ITEM P270
Procedure: as §4, §5, §6, §7, §8, §9

BZD (central) = test: Cerep panel binding assay; settings: 10 µM, agonist radioligand
Procedure: as §4, §5, §6, §7, §8, §9

5-HT1B (h) = target: T26, 5-HT1B (h) (Homo sapiens, UniProt P28222); test: Cerep panel binding assay; settings: antagonist radioligand
T26 construct: Eurofins Pharma Discovery (CRO that ran the assay) SafetyScreen44 Panel (Cerep, ITEM P270)
Procedure: as §4, §5, §6, §7, §8, §9

delta (DOP) (h) = target: T27, delta (DOP) (h) (Homo sapiens, UniProt P41143); test: Cerep panel binding assay; settings: agonist radioligand
T27 construct: purchased Eurofins Pharma Discovery (Cerep) SafetyScreen44 Panel, ITEM P270
Procedure: as §4, §5, §6, §7, §8, §9

KV channel = test: Cerep panel binding assay; settings: 10 µM, antagonist radioligand
Procedure: as §4, §5, §6, §7, §8, §9

A2A (h) = target: T28, A2A (h) (Homo sapiens, UniProt P29274); test: Cerep panel binding assay; settings: 10 µM, agonist radioligand
T28 construct: Eurofins Pharma Discovery (CRO that ran the assay) SafetyScreen44 Panel (Cerep, ITEM P270)
Procedure: as §4, §5, §6, §7, §8, §9

CCK1 (CCKA) (h) = target: T29, CCK1 (CCKA) (h) (Homo sapiens, UniProt P32238); test: Cerep panel binding assay; settings: agonist radioligand
T29 construct: Eurofins Pharma Discovery (CRO that ran the assay) SafetyScreen44 Panel (Cerep, ITEM P270)
Procedure: as §4, §5, §6, §7, §8, §9

CC(C)Oc1ccc(-c2ncc(CNc3ccnc(C(F)(F)F)c3)cn2)cc1Cl [Compound 24]
half-life [1]: 9 min
IC50 (CYP1A): > 25 µM
IC50 (P2X4 receptor): > 30 µM
BINDING (%) [2]: 73.1% and > 50%
inhibition at 10 µM (5-HT1A (h)): 11.3%
inhibition at 10 µM [3]: -4.7%
inhibition at 10 µM (MAO-A): 24.9%
inhibition at 10 µM (H2 (h)): -30%
inhibition at 10 µM (5-HT transporter (h)): 49.8%
inhibition at 10 µM (M2 (h)): 0%
inhibition at 10 µM (H1 (h)): 8.2%
inhibition at 10 µM (CB2 (h)): 31%
BINDING (%) (NMDA): 0.9%
inhibition at 10 µM (beta2 (h)): 7.9%
inhibition at 10 µM (M3 (h)): -2%
inhibition at 10 µM (5-HT2A (h)): -2.8%
inhibition at 10 µM (5-HT3 (h)): 4.4%
inhibition at 10 µM (beta1 (h)): 7.1%
inhibition at 10 µM (GR (h)): 16.2%
inhibition at 10 µM (M1 (h)): -5.9%
inhibition at 10 µM (D2S (h)): -0.6%
inhibition at 10 µM (ETA (h)): -0.3%
inhibition at 10 µM (dopamine transporter (h)): 22.7%
inhibition at 10 µM (5-HT2B (h)): 62.2%
inhibition at 10 µM (alpha1A (h)): 3.4%
inhibition at 10 µM (kappa (h) (KOP)): 23.6%
inhibition at 10 µM (AR (h)): 12.7%
inhibition at 10 µM (CB1 (h)): 16.3%
BINDING (%) (BZD (central)): –27.1%
inhibition at 10 µM (5-HT1B (h)): -6.7%
inhibition at 10 µM (delta (DOP) (h)): 14.5%
BINDING (%) (KV channel): 14.2%
BINDING (%) (A2A (h)): 2.2%
inhibition at 10 µM (CCK1 (CCKA) (h)): -12%
